# Earlier results in US20220265591A1, “USE OF AN OSMOLYTE IN MANUFACTURE OF A MEDICAMENT FOR TREATMENT OF OCULAR DISORDERS” (SINGAPORE HEALTH SERVICES PTELTD, priority 2019, published 2022).
# Test system: TGFBIp derived peptides
# Settings: 0.001-0.02% (0.03-0.6 mM), close to critical micellar concentration; cited from earlier work
substance,measurement,value
benzalkonium chloride,effect on amyloid fibril formation,accelerated the amyloid fibril formation
